{
  "source": "patent US12638451B2",
  "about": "“Genetic amplified tumor homing nanoparticles and compositions and methods thereof” (priority 2019, dated 2026)",
  "test_system": "xenograft models of prostate cancer",
  "test": "In vivo antitumor efficacy",
  "parameters": "species or system mice",
  "settings": "Dox 22 μg/mL or Tf-Dox containing 5 μg/mL Dox i.v.; Ad.DD3 intratumoral 7 days before; 14 days observation",
  "excerpt": "To study the in vivo enhancement effect of the genetic probes on the antitumor efficacy of Tf-Dox, we first established xenograft models of prostate cancer by subcutaneous injection of LNCap tumor cells (about 1×10^6) in Matrigel (BD Biosciences; 1/1) into the left shoulder of BALB/c male mice. […] During 14 days of observation, we monitored the tumor volumes according to the following formula: V=a×b^2/2 where a and b were the longest and shortest diameters of the tumor, respectively, measured using a Vernier caliper. […] The reduced injection dose, in turn, is promising to lower down the distribution and biotoxicity of drugs towards the normal tissues. […] Thus, the optimized therapy outcome of the gene-nanoparticle synergetic strategy is resulted from the enhanced tumor homing ability of the nanoparticles leading to higher DOX accumulation in the tumor cells rather than the antitumor effect of the gene probes.\nXenograft models of prostate cancer were established by subcutaneous injection of LNCap tumor cells (about 1×10^6) in Matrigel (BD Biosciences; 1/1) into the left shoulder of BALB/c male mice. […] Changes in tumor volume and body weight were monitored at several scheduled time-points. The volume of the tumor was calculated according to the following formula: V=a×b^2/2 where a and b were the longest and shortest diameters of tumor, respectively, measured using a Vernier calliper. […]",
  "data": [
    {"substance": "Tf-Dox", "values": [
      {"measurement": "Tumor volume / tumor inhibition", "value": "an increase of tumor volume was visualized"}
    ]}
  ]
}
